Among the data in US20250304600A1, “PHARMACEUTICAL COMPOUNDS AND COMPOSITIONS AS c-KIT KINASE INHIBITORS” (Enanta Pharmaceuticals, Inc., priority 2023, published 2025) are IC50 and EC50 values, retold here.

Assay [1] has as its target T1, Recombinant human c-KIT kinase (Homo sapiens, UniProt P10721).
T1 construct: purchased Promega V4498
The experiment in a line: c-KIT kinase chemiluminescence assay (ADP-Glo). The class given is biochemical. The conditions noted are these: ATP 50 μM. The method, then: The c-KIT Kinase Enzyme System (V4498) and ADP-Glo™ Kinase Assay kit (V6930) were purchased from Promega (Madison, WI). DMSO (D2650) was purchased from Sigma-Aldrich (Burlington, MA).
c-KIT Kinase Chemiluminescence Assay:
Kinase Reaction: The kinase assay was based on the recommended protocol by c-KIT Kinase Enzyme System from Promega. Recombinant human c-KIT kinase in 3 μL of assay buffer (40 mM Tris pH 7.5, 20 mM MgCl2, 0.1 mg/mL BSA and 50 μM DTT) was added to the test or high control wells and 3 μL of assay buffer was added to the low control wells. The microplate was centrifuged at 800 rotations per minute (rpm) for 60 s and incubated at room temperature (RT) for 30 min. Next, 2 μL of buffered ATP and polyEY substrate solution was added to all wells. The microplate was centrifuged at 800 rpm for 60 s and incubated at RT for 2 h.
ADP detection with ADP-Glo™ Kinase Assay: After the kinase reaction incubation, 5 μL of ADP-Glo™ reagent was added to all wells. The microplate was centrifuged at 800 rpm for 60 s and incubated at RT for 40 min. Ten microliter (10 μL) of Kinase Detection Reagent (Luciferin-Luciferase system) was then added to all wells. The microplate was centrifuged at 800 rpm for 60 s and incubated at RT for 60 min. Kinase activity was measured as an increase in luminescence at RT in an Envision plate reader equipped with 560 nm filters and operating in endpoint mode.
Data Analysis: Endpoint chemiluminescence from high and low control wells were used to calculate normalized c-KIT activity at various concentrations of test compounds. The normalized activities were fitted to inhibitor-versus-normalized response fit in GraphPad Prism 7 to determine half-maximal inhibitory concentration (IC50) and hill coefficient values (H).
Where I is the inhibitor concentration and H is the Hill coefficient.
In general terms: In ADP-Glo the light output rises with the ADP produced.

The test system of assay [2] is M-07e cells which endogenously express human c-KIT. The assay can be described thus: M-07e cellular assay: SCF-mediated cell proliferation (CellTiter Glo). The class given is cell-based. The conditions noted are these: 72 h, SCF-mediated proliferation of M-07e cells. As for the experimental part:
M-07e cells (Creative Bioarray, CSC-C0249) which endogenously express human c-KIT were used to evaluate the effect of compounds on stem cell factor (SCF)-mediated cell proliferation. M-07e cells were cultured in growth media (RPMI+10% FBS+1% penicillin/streptomycin+10 ng/mL GM-CSF) at 5E5-1.5E6 cells/mL, replenishing media every 3-4 days. 1.5E4 cells were seeded per well in 384 well tissue culture treated plates in […] assay media (RPMI+10% FBS+1% penicillin/streptomycin) without growth factor stimulation and incubated at 37° C. in a CO2 humidity-controlled incubator. Twenty-four hours later, three-fold serially diluted test compounds in media containing SCF (at the previously determined EC90) were added to the plated M-07e cells and incubated for an additional 72 hours. Cell viability was determined by adding 25 μL CellTiter Glo (Promega) to the cells and the luminescence was measured using a Perkin Elmer Envision plate reader. The EC50 was determined using GraphPad Prism. Percent cell growth was determined after normalizing the curve to the mean RLU high control (no compound control wells) at 100% and the mean RLU low control (no SCF control wells) at 0%.
(In ATP-based viability assays light output follows the ATP content of the culture.)

What is called IC50 is the point on the concentration scale where inhibition reaches its midpoint. By EC50 is commonly meant the midpoint of the concentration-response curve.

T1 sequence (P10721 544-976 limits assumed): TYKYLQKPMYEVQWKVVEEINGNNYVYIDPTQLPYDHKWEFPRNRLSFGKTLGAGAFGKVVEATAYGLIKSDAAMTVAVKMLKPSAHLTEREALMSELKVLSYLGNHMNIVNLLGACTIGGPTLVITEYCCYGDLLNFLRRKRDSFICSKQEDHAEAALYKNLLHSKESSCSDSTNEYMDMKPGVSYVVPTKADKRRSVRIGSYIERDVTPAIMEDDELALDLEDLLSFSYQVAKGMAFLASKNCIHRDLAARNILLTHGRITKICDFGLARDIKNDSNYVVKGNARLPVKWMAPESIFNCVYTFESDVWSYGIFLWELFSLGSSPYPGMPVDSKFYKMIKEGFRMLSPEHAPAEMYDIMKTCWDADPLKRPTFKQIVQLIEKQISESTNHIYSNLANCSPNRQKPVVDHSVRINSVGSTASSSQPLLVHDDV

Consider `Cc1ccc(-c2noc([C@H]3C[C@@H]3F)n2)cc1NC(=O)c1cnc2cccnn12` [Example 16], for which the half-maximal inhibitory concentration (IC50) in assay [1] was above 1000 nM. For `Cc1ccc(-c2noc([C@H]3C[C@@H]3F)n2)cc1NC(=O)c1cnc(-c2ccc3nn(CC(C)(C)O)c(C)c3c2)o1` [Example 21a], the IC50 in assay [1] is below 100 nM. Also, the concentration for a half-maximal effect (EC50) in assay [2] was below 100 nM. Turning to `Cc1ncc(-c2noc([C@H]3C[C@@H]3F)n2)cc1NC(=O)c1cnc(-c2ccc3c(c2)c(C)nn3CC(C)(C)O)o1` [Example 22a], in assay [1], the IC50 lay within 100 to 1000 nM. Also, the half-maximal effective concentration (EC50) in assay [2] was below 100 nM. The like results for `Cc1ncc(-c2noc([C@H]3C[C@@H]3F)n2)cc1NC(=O)c1cnc(-c2ccc3nn(CC(C)(C)O)c(C)c3c2)o1` [Example 23a] were, in that order, 100 to 1000 nM and 100 to 1000 nM. In turn, `Cc1ccc(-c2noc([C@H]3C[C@@H]3F)n2)cc1NC(=O)c1cnc(N2CC(C(=O)O)C2)s1` [Example 98-4] gave an EC50 in assay [2] above 1000 nM.

Consider `Cc1ccc(-c2noc([C@H]3C[C@@H]3F)n2)cc1NC(=O)c1cnc2n1Cc1ccccc1-2` [Example 99], for which, in assay [1], the 50% inhibitory concentration (IC50) is below 100 nM. In assay [2], `C#Cc1ccc2c(C(=O)Nc3cc(-c4noc([C@H]5C[C@@H]5F)n4)ccc3C)cnn2c1` [Example 106] came in with an EC50 below 100 nM. Still for that read-out and setting: as for `Cc1ccc(-c2noc([C@H]3C[C@@H]3F)n2)cc1NC(=O)c1cnn2cc(-c3cn(C(F)F)nn3)ccc12` [Example 107], the figure is below 100 nM.

Consider `COCCn1nc(C)c(-c2ccc3c(C(=O)Nc4cc(-c5noc([C@H]6C[C@@H]6F)n5)ccc4C)cnn3c2)c1C` [Example 147], for which, in assay [1], the IC50 was below 100 nM. Also, the EC50 in assay [2] is below 100 nM. As to `Cc1ncc(-c2ccn3ncc(C(=O)Nc4cc(-c5noc([C@H]6C[C@@H]6F)n5)ccc4C)c3c2)c(C)n1` [Example 168], in assay [1], the 50% inhibitory concentration (IC50) is below 100 nM. For `Cc1ccc(-c2noc([C@H]3C[C@@H](OC(F)F)C3)n2)cc1NC(=O)c1cnn2ccc(N3CC4(COC4)C3)cc12` [Example 242], in assay [2], the concentration giving a half-maximal response (EC50) is below 100 nM. For `Cc1ncc(-c2noc(C3CC(OC(F)F)C3)n2)cc1NC(=O)c1cnn2ccc(N3CC4(C3)CC(O)(C(F)(F)F)C4)cc12` (stereo not drawn) [Example 281-40], in assay [1], the IC50 fell in the range of 100 to 1000 nM. In assay [2], this compound displayed an EC50 below 100 nM. For `Cc1ncc(-c2noc(C3CC(OC(F)F)C3)n2)cc1NC(=O)c1cnn2ccc(N3CC4(C3)CC(O)(C(F)F)C4)cc12` (stereo not drawn) [Example 281-44] the same measures were below 100 nM and below 100 nM. Regarding `Cc1cc(F)c(-c2noc(C3CC(OC(F)F)C3)n2)cc1NC(=O)c1cnn2ccc(N3CC4(COC4)C3)cc12` (stereo not drawn) [Example 281-58], in assay [1], the 50% inhibitory concentration (IC50) fell in the range of 100 to 1000 nM. In assay [2], this compound returned an EC50 of 100 to 1000 nM.

In the case of `Cc1ccc(-c2noc([C@H]3C[C@@H]3F)n2)cc1NC(=O)c1cnc(-c2cnc(N)nc2)o1` [Example 308-64], the concentration for half-maximal inhibition (IC50) in assay [1] is above 1000 nM. Same read-out and setting: under `Cc1ccc(-c2nc([C@H]3C[C@@H]3F)cs2)cc1NC(=O)c1cnn2ccc(N3CC4(COC4)C3)cc12` [Example 309] stands below 100 nM. `Cc1ncc(-c2ncc(OC(F)(F)F)cn2)cc1NC(=O)c1cnn2ccc(N3CC4(C3)CC(O)(C(F)F)C4)cc12` [Example 313]: the half-inhibitory concentration (IC50) in assay [1] lay within 100 to 1000 nM. In assay [2], this compound came in with an EC50 below 100 nM. With `Cc1ncc(-c2ncc(OC(F)(F)F)cn2)cc1NC(=O)c1cnn2ccc(-c3c(C)nc(N)nc3C)cc12` [Example 364], the half-inhibitory concentration (IC50) in assay [1] was above 1000 nM. The same measure, in the same setting: as for `Cc1nc(N)nc(C)c1-c1ccn2ncc(C(=O)Nc3cc(-c4noc([C@H]5C[C@@H](OC(F)(F)F)C5)n4)sc3C)c2c1` [Example 368], the figure is above 1000 nM; as for `Cc1nc(N)nc(C)c1-c1ccn2ncc(C(=O)Nc3cc(-c4noc(C5CN(C(=O)OC(C)(C)C)C5)n4)sc3C)c2c1` [Example 369], above 1000 nM; as for `Cc1nc(N)nc(C)c1-c1ccn2ncc(C(=O)Nc3cc(-c4noc([C@H]5C[C@@H]5F)n4)sc3C)c2c1` [Example 370], above 1000 nM. In the case of `Cc1nc(N)nc(C)c1-c1ccn2ncc(C(=O)Nc3cc(-c4noc(C5CN(C(=O)[C@H]6C[C@@H]6F)C5)n4)sc3C)c2c1` [Example 371], the 50% inhibitory concentration (IC50) in assay [1] was above 1000 nM.

Regarding `Cc1nn(-c2ccc(C3CC3)cc2)cc1NC(=O)c1cnn2ccc(N3CC4(COC4)C3)cc12` [Example 372], in assay [1], the IC50 was above 1000 nM.

Consider `Cc1ncc(-c2nnn(C[C@H](O)C(F)F)n2)cc1NC(=O)c1cnn2ccc(N3CC4(C3)CC(O)(C(F)F)C4)cc12` [Example 378], for which the IC50 in assay [1] lay within 100 to 1000 nM. Moreover, in assay [2], the concentration giving a half-maximal response (EC50) fell in the range of 100 to 1000 nM.

For `Cc1ncc(-c2nnn(C[C@@H](O)C(F)F)n2)cc1NC(=O)c1cnn2ccc(N3CC4(C3)CC(O)(C(F)F)C4)cc12` [Example 379], in assay [1], the IC50 lay in the range of 100 to 1000 nM. Moreover, the 50% effective concentration (EC50) in assay [2] lay in the range of 100 to 1000 nM. Regarding `Cc1ncc(-c2nnn(C[C@H](O)C(F)(F)F)n2)cc1NC(=O)c1cnn2ccc(N3CC4(C3)CC(O)(C(F)F)C4)cc12` [Example 380], in assay [1], the 50% inhibitory concentration (IC50) lay in the range of 100 to 1000 nM. Moreover, the concentration for a half-maximal effect (EC50) in assay [2] was in the range of 100 to 1000 nM. With `Cc1ncc(-c2nnn(C[C@@H](O)C(F)(F)F)n2)cc1NC(=O)c1cnn2ccc(N3CC4(C3)CC(O)(C(F)F)C4)cc12` [Example 381], in assay [1], the 50% inhibitory concentration (IC50) fell in the range of 100 to 1000 nM. For the same compound, the half-maximal effective concentration (EC50) in assay [2] was in the range of 100 to 1000 nM. As to `CCn1nnc(-c2cnc(C)c(NC(=O)c3cnn4ccc(N5CC6(C5)CC(O)(C(F)F)C6)cc34)c2)n1` [Example 382], the half-inhibitory concentration (IC50) in assay [1] was in the range of 100 to 1000 nM. Further, the EC50 in assay [2] was below 100 nM. `Cc1ncc(-c2nnn(CC(C)(C)C#N)n2)cc1NC(=O)c1cnn2ccc(N3CC4(C3)CC(O)(C(F)F)C4)cc12` [Example 383]: in assay [1], the IC50 was in the range of 100 to 1000 nM. This compound displayed an EC50 in assay [2] of 100 to 1000 nM. On to `Cc1ncc(-c2nnn(CCC(F)(F)F)n2)cc1NC(=O)c1cnn2ccc(N3CC4(C3)CC(O)(C(F)F)C4)cc12` [Example 384], for which the IC50 in assay [1] was 100 to 1000 nM. This compound showed an EC50 in assay [2] below 100 nM. Take `Cc1ncc(-c2nnn(C3CCC(F)(F)CC3)n2)cc1NC(=O)c1cnn2ccc(N3CC4(C3)CC(O)(C(F)F)C4)cc12` [Example 385]: the concentration for half-maximal inhibition (IC50) in assay [1] was below 100 nM. In addition, the EC50 in assay [2] is below 100 nM.

Take `COCCn1nnc(-c2cnc(C)c(NC(=O)c3cnn4ccc(N5CC6(C5)CC(O)(C(F)F)C6)cc34)c2)n1` [Example 386]: the IC50 in assay [1] was 100 to 1000 nM. For the same compound, the EC50 in assay [2] lay within 100 to 1000 nM. Turning to `Cc1ncc(-c2nnn(CCO)n2)cc1NC(=O)c1cnn2ccc(N3CC4(C3)CC(O)(C(F)F)C4)cc12` [Example 387], in assay [1], the IC50 is above 1000 nM. The EC50 in assay [2] was above 1000 nM. For `COC(=O)N1CC(c2nc(-c3cc(NC(=O)c4cnn5ccc(N6CC7(C6)CC(O)(C(F)F)C7)cc45)c(C)s3)no2)C1` [Example 388], the IC50 in assay [1] is below 100 nM. In assay [2], this compound returned a concentration giving a half-maximal response (EC50) below 100 nM. On to `Cc1ncc(-c2noc(N3CC(O)(C(F)(F)F)C3)n2)cc1NC(=O)c1cnn2ccc(N3CC4(C3)CC(O)(C(F)F)C4)cc12` [Example 389], for which the IC50 in assay [1] is above 1000 nM. The same compound had an EC50 in assay [2] above 1000 nM. For the compound `Cc1ccc(-c2noc([C@H]3C[C@@H]3C(F)F)n2)cc1NC(=O)c1cnn2ccc(-c3c(C)nc(N)nc3C)cc12` [Example 390], the IC50 in assay [1] lay in the range of 100 to 1000 nM. In addition, the EC50 in assay [2] lay in the range of 100 to 1000 nM. Regarding `Cc1ncc(-c2noc([C@H]3C[C@@H]3C(F)F)n2)cc1NC(=O)c1cnn2ccc(-c3c(C)nc(N)nc3C)cc12` [Example 391], the IC50 in assay [1] is above 1000 nM. Moreover, in assay [2], the EC50 is above 1000 nM.

As for `O=C(Nc1cn(-c2ccc(C3CC3)cc2)nc1C(F)F)c1cnn2ccc(N3CC4(COC4)C3)cc12` [compound 373], the concentration giving a half-maximal response (EC50) in assay [2] was above 1000 nM.
